{"source": "patent US10413612B2", "about": "“Method of treating cancer with a biomaterial and a toll-like receptor agonist” (Dana-Farber Cancer Institute, Inc., priority 2016, dated 2019)", "key": {"[1]": {"assay": "In vitro release study of payloads from hydrogel", "format": "physicochemical", "conditions": "sink conditions, PBS or media", "description": "To determine the release kinetics of each payload from the hydrogel, a hydrogel loaded with fluorescently tagged anti-PD-1, fluorescently tagged IL-15sa, lenalidomide, celecoxib, fluorescently tagged 2′3′-cGAMP, or R848 was immersed in 3 mL pH 7.4 phosphate buffered saline (PBS). At each time point, 1 mL of media was taken out and the same amount of fresh buffer was added back. The amount of payload that had been released was then measured using a fluorescence plate reader or via HPLC.\nHydrogels were prepared according to the general procedure in Example 1. They contained either one or all of the payloads indicated. Fluorescent dyes were conjugated to the proteins to facilitate the measurement of protein release kinetics. The hydrogels were immersed in 3 mL of buffer (either PBS only, PBS with Tween80 (0.2% v/v), or RPMI with 10% FBS) and incubated at 37° C. with stirring.\nAt the indicated sampling time points, 1 mL of buffer was recovered for measurement and was replaced by an equivalent volume of fresh buffer. The aliquots were measured using a fluorescence plate reader to determine protein concentration. Aliquots were also assessed by HPLC to determine small molecule concentration."}, "[2]": {"assay": "In vivo release study (fluorescence IVIS imaging)", "design": "species or system non-tumor-bearing mice", "conditions": "each time point: first 24 hours (2′3′-cGAMP), first week (IL-15sa)", "source_text": "To evaluate the in vivo release profiles of Cy7 carboxylic acid (a model compound for R848), anti-PD-1, IL-15sa, and 2′3′-cGAMP, hydrogels containing the fluorophore or one of the fluorescently labeled payloads were surgically implanted into non-tumor-bearing mice.\nThe loading and release properties of the hydrogel were examined in additional experiments. […] It was then confirmed that the hydrogel extends the release of the small molecules and biologics in vivo. Cy7 carboxylic acid (Cy7-CA) was used as a model small molecule payload, as its physical properties are very similar to those of resiquimod (R848). Cy7-CA was administered to non-tumor-bearing mice, either in solution or loaded in a scaffold placed by the fourth mammary fat pad. The mice were assessed by fluorescence IVIS imaging (FIG. 37B), and the data were quantified (FIG. 37C). Whereas a loss of ˜60% of the signal was detected within two hours of administration of the fluorophore in solution, this amount of signal decay required 24 hours for the fluorophore loaded in the hydrogel. Over this time course, there was a […] for the latter group, on average.\nTo confirm that the hydrogel sustains the release of the small molecule and biologics in vivo, fluorescently labeled versions of 2 ? […]"}, "[3]": {"tested_on": "4T1-Luc2 syngeneic breast cancer cells", "conditions": "hydrogel with IL-15sa and anti-PD-1 (devices 1, 14-16)", "description": "Seven-week-old female Balb/c mice were inoculated orthotopically with 100,000 4T1-Luc2 syngeneic breast cancer cells (into the fourth mammary fat pad). After 10 days, the mice were anesthetized, tumors were surgically resected, and compositions were placed in the resection site. […] The order of surgeries avoided systematic error by dividing up the groups. Standard follow-up care (wound clips, analgesic) was provided.\nFor the metastatic breast cancer model, 10^5 4T1-Luc2 or 4T1 cells (in 30 μl DPBS) were inoculated orthotopically into the fourth mammary pad of mice to generate a local tumor mass. Cells were injected without any incision to expose the fat pad. Mice were randomly assigned to treatment groups, and surgery was performed 10 days after tumor inoculation. For the metastatic melanoma and lung cancer models, 10^6B16-BL6 or 5×10^5 LLC cells (in 100 μl DPBS) were inoculated subcutaneously in mice to generate a local tumor mass. Mice were randomly assigned to treatment groups, and surgery was performed when tumor volumes reached ˜600 mm^3. While mice were kept under anesthesia at 2% isoflurane, the tumor was resected, and the hydrogel was placed in the site of the resultant cavity at the time of surgery. The wound was closed with medical clips. Control experiments were performed in which therapy was administered in solution at the site of surgery, intraperitoneally, or intravenously. For tumor re-challenge experiments, 10^4 4T1-Luc2 cells were inoculated in the contralateral fourth mammary fat pad. The surgeries were performed independently at least three times, and the surgeon was often blinded.\nAfter surgery, mice were inspected weekly for tumor recurrence and distal metastasis by bioluminescence imaging (BLI). To this end, 10 min after intraperitoneal injection of D-luciferin (150 mg/kg), a substrate of Luc2, the mice were anesthetized with 2% isoflurane and imaged using an IVIS Spectrum In Vivo Imaging System (Perkin Elmer).\nA series of compositions described above in Table 2 were evaluated in viva. In each group of evaluations, seven-week-old female Balb/c mice were inoculated orthotopically with 100,000 4T1-Luc2 syngeneic breast cancer cells (into the fourth mammary fat pad). After 10 days, mice were anesthetized, tumors were surgically resected, and the composition was placed in the resection site. Tumor relapse and metastasis were monitored via imaging over the course of 6 weeks.\nFemale BALB/cJ mice were inoculated orthotopically with 4T1-Luc2 breast cancer cells in their fourth mammary fat pad. Nine days later, the mice were imaged by bioluminescent IVIS imaging to confirm that the size of the tumors was consistent across animals to enable randomization into groups. On day 10 post-tumor inoculation, tumors (˜100 mm^3) were resected, and device 1 was placed in the tumor resection site. Controls included no treatment (sham), empty hydrogel (device 8/hydrogel 4), or delivery of the triple combination in solution (S+I+P)—via intraperitoneal injection, intravenous injection, or local administration."}}}
{"substance": "2′3′-cGAMP", "values": [{"measurement": "in vitro release kinetics (time scale)", "setting": "[1]", "result": "hours for the small molecule"}, {"measurement": "percentage remaining locally, hydrogel relative to free compound", "setting": "[2]", "result": "nearly twice"}, {"measurement": "survival benefit as innate immune activator component", "setting": "[3]", "result": "conferred greater survival benefit than the Toll-like receptor (TLR) 7/8 agonist R848"}]}
